Like-named read-outs stand apart in the source and are kept apart here. Bounds are passed on as bounds.

A word on the IC50: it is the concentration that inhibits the measured activity by half.

One data set has as its target P-glycoprotein (Pgp) (Homo sapiens (Human), UniProt P08183). In words: MDCK-MDR1 Pgp assessment. It counts as in vitro ADME. Particulars: for efflux ratio at 2 h, 1 μM: dog, MDCK-MDR1 cells, 37° C. for 2 hours, read-out: PgpER; for Pgp substrate status: conclusion from Table 3. As to the method:
Assay c): MDCK-MDR1 Pgp Assessment
Efflux transport mediated by P-glycoprotein (Pgp) was assessed by MDCK-MDR1 cells. The final concentrations of test compounds and control compound were at 1 μM. The multi-well insert plate was incubated at 37° C. for 2 hours.

In another data set the target is hERG channel (Homo sapiens (Human), UniProt Q12809). Put plainly: hERG inhibition, manual patch clamp in HEK 293 cells. In kind it is cell-based. Particulars: for IC50: HEK 293 cell line stably expressing hERG channel, manual patch clamp; for hERG liability: conclusion from Table 3. How it is done: Assay f): hERG Inhibition Inhibition of hERG channel was conducted in HEK 293 cell line stably expressing hERG channel by manual patch clamp.
hERG channel, sequence (Q12809 whole entry): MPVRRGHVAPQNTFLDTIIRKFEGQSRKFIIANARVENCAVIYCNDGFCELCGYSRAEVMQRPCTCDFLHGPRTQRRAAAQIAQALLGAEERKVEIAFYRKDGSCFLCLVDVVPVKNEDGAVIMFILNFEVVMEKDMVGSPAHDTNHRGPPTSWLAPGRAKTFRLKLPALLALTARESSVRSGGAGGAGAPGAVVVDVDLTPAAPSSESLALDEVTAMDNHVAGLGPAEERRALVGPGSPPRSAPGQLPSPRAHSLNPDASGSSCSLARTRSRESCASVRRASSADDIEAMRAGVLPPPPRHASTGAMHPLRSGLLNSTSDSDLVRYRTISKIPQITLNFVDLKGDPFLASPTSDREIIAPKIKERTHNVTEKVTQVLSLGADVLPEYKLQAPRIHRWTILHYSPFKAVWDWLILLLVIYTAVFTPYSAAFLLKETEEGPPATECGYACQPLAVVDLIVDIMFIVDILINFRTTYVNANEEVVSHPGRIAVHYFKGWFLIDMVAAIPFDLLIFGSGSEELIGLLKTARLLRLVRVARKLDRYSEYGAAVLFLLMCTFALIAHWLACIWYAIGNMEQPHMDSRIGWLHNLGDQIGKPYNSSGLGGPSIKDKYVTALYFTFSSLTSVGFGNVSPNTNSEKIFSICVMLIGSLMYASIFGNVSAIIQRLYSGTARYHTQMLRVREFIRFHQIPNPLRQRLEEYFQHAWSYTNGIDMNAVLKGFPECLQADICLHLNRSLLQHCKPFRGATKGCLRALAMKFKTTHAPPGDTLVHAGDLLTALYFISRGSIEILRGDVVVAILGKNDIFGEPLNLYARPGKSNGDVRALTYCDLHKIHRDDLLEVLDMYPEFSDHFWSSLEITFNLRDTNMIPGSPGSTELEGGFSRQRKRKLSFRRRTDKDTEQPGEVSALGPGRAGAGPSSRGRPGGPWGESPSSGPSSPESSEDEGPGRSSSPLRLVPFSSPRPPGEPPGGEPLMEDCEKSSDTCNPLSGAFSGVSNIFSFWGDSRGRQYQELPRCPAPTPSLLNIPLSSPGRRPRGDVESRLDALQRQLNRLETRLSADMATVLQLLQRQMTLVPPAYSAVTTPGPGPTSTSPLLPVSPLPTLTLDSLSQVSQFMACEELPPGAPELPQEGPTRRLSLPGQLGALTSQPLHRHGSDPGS
(The hERG channel carries a current that helps repolarise heart muscle cells.)

The target of a further data set is BCRP (Homo sapiens (Human), UniProt Q9UNQ0). In words: Caco-2 BCRP assessment. In kind it is in vitro ADME. Particulars: for BCRP ER: Caco-2 cells, 1 μM, efflux ratio -/+ novobiocin 30 μM, >2 = BCRP substrate. How it is done:
Assay d): Caco-2 BCRP Assessment
Caco-2 cells were used to study efflux transport mediated by BCRP. Rate of drug transport by BCRP was determined in the presence and absence of novobiocin, a strong inhibitor of BCRP, which was added to both apical and basolateral compartment sat a final concentration of 30 μM. The final concentrations of test compounds and control compound were at 1 μM. The multi-well insert plate was incubated at 37° C. for 2 hours. Efflux ratio (−inhibitor/+inhibitor)>2 was considered to be a BCRP substrate.

Data set [1] can be described thus: Mouse SOA study for brain penetration. It counts as in vivo. The note with it: for Mouse Kpu, u: male balb/c mice, oral 10 mg/kg, AUC 0-7 hr brain/plasma, unbound; for brain penetration in vivo: mouse SOA study, conclusion from Table 3. How it is done: Assay e) Mouse SOA Study for Brain Penetration
Six non-fasted male balb/c mice (6-8 weeks, 20-25 g) were orally administered at 10 mg/kg, using a suspension formulation of 1% methylcellulose (MC) in deionized water. Brain and blood samples were collected at 0.25, 0.5, 1, 2, 4, 7 hours after dose. Plasma was obtained by centrifuging the blood samples for 5 min at 4000 g and 4° C. Brain tissue was homogenized following addition of four times the volume of phosphate-buffered saline (pH 7.4). Quantification of the compound in plasma and brain was undertaken by LC-MS/MS. Area under the curve (AUC) was determined from 0 to 7 hours in the brain tissue and plasma.
Total brain to plasma concentration ratio Kp was determined using the equation: Brain Kp=AUC0-7 hr brain/AUC0-7 hr plasma
Unbound brain to plasma ratio was determined using the equation: Brain Kp,uu=Kp*fu,brain/fu,plasma
Unbound fraction (fu, plasma) and unbound fraction (fu, brain) were obtained from in vitro equilibrium dialysis by using plasma and brain homogenate, respectively.

Another data set concerns the target wt-EGFR (Homo sapiens (Human), UniProt P00533). In words: NCI H838 cellular assay (wt-EGFR inhibition), phospho-EGFR ELISA. It counts as cell-based. How it is done: Assay b) NCI H838 Cellular Assay (Wt-EGFR Inhibition) Inhibition of phosphor wt-EGFR was determined by enzyme-linked immunosorbent assay (ELISA) in NCI H838 cells (ATCC, catalog number CRL-5844). Human Phospho-EGFR DuoSet IC ELISA kit was purchased from R&D systems (catalog number DYC1095). Day 1: When the cells reach 70-90% confluence, cells were trypsinized and re-suspended. 5000 cells per well were seeded to a 384-well plate. The plate was incubated at 37° C. with 5% CO2 for 24 hours. Day 2: Cell culture medium was replaced with 40 μL FBS-Free RPMI1640. After 2 hours of starvation, the 384-well plate was dosed with 40 nL of compounds by Echo from source plate and the 384-well plate was incubated at 37° C. with 5% CO2 for 2 hours. After 2 hours of incubation with compounds, EGF (final concentration at 100 ng/ml) was added to the plate which was incubated at 37° C. with 5% CO2 for 5-10 minutes. Medium was discarded from the plate and 30 μl/well lysis buffer was added to the plate which was incubated at 4° C. for 10 minutes. The cell lysates can be stored at −80° C. in cell plates but must be thawed at room temperature for at least 30 minutes prior to use and continuing the assay. ELISA plate was coated by diluting capture antibody to 4 μg/ml with PBS, and 25 μl/well was dispensed to 384 well UltraCruz® ELISA Plate, which was incubated at 4° C. overnight. Day 3: After the plates were washed three times with 100 μl/well of wash buffer, the plates were blocked by adding 75 μl of Block Buffer to each well and incubated at room temperature for 3 hours. After the plates were washed three times with 100 μl/well of wash buffer, 20 μl cell lysate was transferred to the blocked ELISA plate which was incubated for 2 hours at room temperature. After the plates were washed three times with 100 μl/well of wash buffer, 25 μl/well detection antibody (dilute 1 in 900 in assay buffer) was added the plate which was incubated for 2 hours, protected from light. After washed three times, 25 μl/well TMB substrate was added to the ELISA plate which was incubated for about 10-15 min, protected from light before addition of 25 μl/well stop solution. Absorbance was read at 450 nm and 570 nm within 30 minutes.
In general terms: In an ELISA, binding on a coated surface is turned into a signal by an enzyme label.

The target in another data set is HER2 (Homo sapiens (Human), UniProt P04626). Put plainly: BT474 cellular assay (HER2 inhibition), phospho-HER2 ELISA. It counts as cell-based. The note with it: inhibition of phosphor HER2, BT474 cells, 2 hours compound incubation. Put shortly: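 BT474 cells seeded and grown 24 h, then exposed to compound for 2 h at 37 °C and lysed. Lysates assayed for phospho-HER2 by sandwich ELISA with TMB detection, absorbance read at 450 and 570 nm; IC50 values derived.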
HER2, sequence (P04626 23-1255): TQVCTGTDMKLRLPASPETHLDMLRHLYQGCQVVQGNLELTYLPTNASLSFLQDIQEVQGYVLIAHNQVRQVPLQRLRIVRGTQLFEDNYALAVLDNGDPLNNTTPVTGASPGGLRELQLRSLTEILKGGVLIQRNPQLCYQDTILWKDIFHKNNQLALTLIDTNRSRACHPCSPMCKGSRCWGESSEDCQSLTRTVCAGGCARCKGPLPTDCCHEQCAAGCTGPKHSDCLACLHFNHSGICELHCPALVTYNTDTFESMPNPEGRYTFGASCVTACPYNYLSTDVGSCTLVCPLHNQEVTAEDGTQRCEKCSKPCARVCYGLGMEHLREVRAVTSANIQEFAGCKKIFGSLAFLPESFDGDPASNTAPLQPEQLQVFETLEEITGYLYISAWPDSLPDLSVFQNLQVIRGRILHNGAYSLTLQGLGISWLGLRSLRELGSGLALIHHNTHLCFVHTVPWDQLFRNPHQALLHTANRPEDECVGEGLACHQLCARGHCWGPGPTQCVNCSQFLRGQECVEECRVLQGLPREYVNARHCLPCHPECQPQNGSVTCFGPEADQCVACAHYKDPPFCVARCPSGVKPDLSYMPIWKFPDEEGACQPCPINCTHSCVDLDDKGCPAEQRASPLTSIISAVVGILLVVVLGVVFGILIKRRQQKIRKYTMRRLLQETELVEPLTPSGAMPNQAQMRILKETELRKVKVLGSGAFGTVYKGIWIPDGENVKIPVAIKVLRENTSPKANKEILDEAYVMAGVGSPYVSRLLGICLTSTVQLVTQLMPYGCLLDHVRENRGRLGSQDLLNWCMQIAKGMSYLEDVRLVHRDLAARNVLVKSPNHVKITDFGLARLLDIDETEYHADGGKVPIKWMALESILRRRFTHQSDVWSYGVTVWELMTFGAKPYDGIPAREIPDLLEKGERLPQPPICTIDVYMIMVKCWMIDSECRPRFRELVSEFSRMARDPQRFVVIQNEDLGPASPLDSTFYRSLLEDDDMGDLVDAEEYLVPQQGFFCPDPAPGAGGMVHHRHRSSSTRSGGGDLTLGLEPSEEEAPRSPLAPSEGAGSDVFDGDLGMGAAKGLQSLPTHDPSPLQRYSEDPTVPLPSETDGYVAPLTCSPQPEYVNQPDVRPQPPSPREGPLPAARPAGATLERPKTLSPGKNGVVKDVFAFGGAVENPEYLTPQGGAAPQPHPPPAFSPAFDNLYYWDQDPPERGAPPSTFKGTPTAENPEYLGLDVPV

Setting [2] is: inhibition of phosphor wt-EGFR, NCI H838 cells, EGF 100 ng/ml.

P-glycoprotein (Pgp), sequence (P08183 whole entry): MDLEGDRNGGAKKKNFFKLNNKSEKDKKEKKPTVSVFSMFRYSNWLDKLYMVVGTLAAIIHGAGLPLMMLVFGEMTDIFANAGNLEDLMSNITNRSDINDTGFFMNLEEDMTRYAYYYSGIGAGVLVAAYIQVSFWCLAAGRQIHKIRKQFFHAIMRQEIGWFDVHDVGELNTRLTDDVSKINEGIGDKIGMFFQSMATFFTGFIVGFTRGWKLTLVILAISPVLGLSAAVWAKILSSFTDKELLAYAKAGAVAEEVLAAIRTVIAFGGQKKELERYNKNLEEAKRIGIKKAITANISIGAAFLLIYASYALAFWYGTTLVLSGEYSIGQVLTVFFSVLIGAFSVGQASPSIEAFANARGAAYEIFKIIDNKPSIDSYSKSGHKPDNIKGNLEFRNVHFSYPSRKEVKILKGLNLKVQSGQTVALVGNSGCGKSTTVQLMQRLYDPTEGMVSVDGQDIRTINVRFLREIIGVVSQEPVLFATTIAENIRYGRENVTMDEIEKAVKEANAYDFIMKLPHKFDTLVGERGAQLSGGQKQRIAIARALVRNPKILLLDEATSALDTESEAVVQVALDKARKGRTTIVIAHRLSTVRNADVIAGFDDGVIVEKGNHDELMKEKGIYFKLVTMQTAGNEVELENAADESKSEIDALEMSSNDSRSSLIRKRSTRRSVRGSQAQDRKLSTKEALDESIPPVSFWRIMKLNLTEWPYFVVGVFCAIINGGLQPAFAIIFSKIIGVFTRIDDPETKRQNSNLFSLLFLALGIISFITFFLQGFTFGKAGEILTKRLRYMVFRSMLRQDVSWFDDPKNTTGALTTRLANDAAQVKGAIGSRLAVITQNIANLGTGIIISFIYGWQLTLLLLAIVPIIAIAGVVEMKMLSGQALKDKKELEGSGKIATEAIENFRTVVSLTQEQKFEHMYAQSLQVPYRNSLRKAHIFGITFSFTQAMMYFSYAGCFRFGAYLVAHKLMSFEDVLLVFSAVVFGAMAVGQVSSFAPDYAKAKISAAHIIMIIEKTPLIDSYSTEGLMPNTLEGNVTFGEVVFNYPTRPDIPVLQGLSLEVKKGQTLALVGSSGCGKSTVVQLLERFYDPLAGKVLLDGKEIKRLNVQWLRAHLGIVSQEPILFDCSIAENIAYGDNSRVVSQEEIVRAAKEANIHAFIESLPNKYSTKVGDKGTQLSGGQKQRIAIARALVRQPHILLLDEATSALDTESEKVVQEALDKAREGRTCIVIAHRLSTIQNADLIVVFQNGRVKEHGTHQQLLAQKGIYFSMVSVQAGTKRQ
BCRP, sequence (Q9UNQ0 whole entry): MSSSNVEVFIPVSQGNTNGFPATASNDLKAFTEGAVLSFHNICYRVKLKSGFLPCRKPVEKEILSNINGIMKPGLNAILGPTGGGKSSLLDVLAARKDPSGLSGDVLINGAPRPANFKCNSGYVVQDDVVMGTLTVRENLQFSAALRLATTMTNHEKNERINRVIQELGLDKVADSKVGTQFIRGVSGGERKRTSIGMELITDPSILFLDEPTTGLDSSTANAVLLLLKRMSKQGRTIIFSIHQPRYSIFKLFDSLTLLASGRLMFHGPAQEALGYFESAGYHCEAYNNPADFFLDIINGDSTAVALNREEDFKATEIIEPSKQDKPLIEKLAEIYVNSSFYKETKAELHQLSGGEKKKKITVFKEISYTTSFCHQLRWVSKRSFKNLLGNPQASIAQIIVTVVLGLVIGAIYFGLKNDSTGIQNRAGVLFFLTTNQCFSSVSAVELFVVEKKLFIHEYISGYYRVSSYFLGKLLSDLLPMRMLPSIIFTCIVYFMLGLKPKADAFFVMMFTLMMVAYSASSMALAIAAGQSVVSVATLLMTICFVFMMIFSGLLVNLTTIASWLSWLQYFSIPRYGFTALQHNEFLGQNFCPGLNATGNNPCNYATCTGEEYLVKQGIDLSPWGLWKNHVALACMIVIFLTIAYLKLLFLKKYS

`CN1CCC(Oc2cccc3ncnc(Nc4ccc(NCc5ccccn5)c(Cl)c4)c23)CC1` [Reference compound 1, 2-chloro-N^4-(5-((1-methylpiperidin-4-yl)oxy)quinazolin-4-yl)-N^1-(pyridin-2-ylmethyl)benzene-1,4-diamine, reference compound]: the efflux ratio at 2 h, 1 μM at P-glycoprotein (Pgp) was determined as 0.57. For the same compound, on hERG channel, the IC50 was less than 2 µM and the “hERG liability” value is given as “strong hERG inhibitor”. In addition, the “BCRP ER” value at BCRP is 1.1.

Consider `Cc1cc(Nc2ncnc3ccc(NC4=NC(C)(C)CO4)cc23)ccc1Oc1ccn2ncnc2c1` [Reference compound 3, N4-(4-([1,2,4]triazolo[1,5-a]pyridin-7-yloxy)-3-methylphenyl)-N6-(4,4-dimethyl-4,5-dihydrooxazol-2-yl)quinazoline-4,6-diamine, reference compound], for which, on P-glycoprotein (Pgp), the “Pgp substrate status” value is reported as “strong Pgp substrates” and the efflux ratio at 2 h, 1 μM came out at 23.8. On hERG channel, this compound came in with an IC50 greater than 10 µM. For the same compound, in data set [1], the “Mouse Kpu, u” value is “too low to calculate” and the “brain penetration in vivo” value was “not brain penetrable in vivo”. Moreover, at BCRP, the “BCRP ER” value came to 2.1.

For the compound `CCOc1cc2ncc(C#N)c(Nc3ccc(OCc4ccccn4)c(Cl)c3)c2cc1NC(=O)/C=C/CN(C)C` [Reference compound 2, Neratinib, reference compound], on P-glycoprotein (Pgp), the “Pgp substrate status” value is “strong Pgp substrates” and the efflux ratio at 2 h, 1 μM was greater than 18.6. Besides, the IC50 against hERG channel was greater than 10 µM. Further, in data set [1], the “Mouse Kpu, u” value is reported as “too low to calculate” and the “brain penetration in vivo” value is “not brain penetrable in vivo”. In addition, at BCRP, the “BCRP ER” value is reported as 1.4.

With `COc1ccc2ncnc(Nc3ccc(Oc4cc5ncnn5cn4)c(C)c3)c2c1O[C@@H]1CCN(C)CC1(F)F` [Example 31, (R)—N-(4-([1,2,4]triazolo[1,5-c]pyrimidin-7-yloxy)-3-methylphenyl)-5-((3,3-difluoro-1-methylpiperidin-4-yl)oxy)-6-methoxyquinazolin-4-amine], at wt-EGFR, half-maximal inhibition (IC50) required 12 µM. At P-glycoprotein (Pgp), the “Pgp substrate status” value was “not Pgp or BCRP substrates” and the efflux ratio at 2 h, 1 μM came out at 1.3. For the same compound, at hERG channel, inhibition was half-maximal at 18 µM (IC50) and the “hERG liability” value is on record as “do not show hERG liability”. Also, the IC50 against HER2 stood at 0.0095 µM. Further, in data set [1] (male, balb/c, mouse, brain, po, 10 mg/kg, read-out: Mouse Kpu, u), the Kp was 0.26. Moreover, the “brain penetration in vivo” value in data set [1] is reported as “brain penetrable”. The “BCRP ER” value at BCRP was 0.68. Further, on BCRP (conclusion from Table 3), the “BCRP substrate status” value is listed as “not Pgp or BCRP substrates”.

As for `Cc1cc(Nc2ncnc3ccc(OCCF)c(N4CC(N(C)C)C4)c23)ccc1Oc1cc2ncnn2cn1` [Example 12, N-(4-([1,2,4]triazolo[1,5-c]pyrimidin-7-yloxy)-3-methylphenyl)-5-(3-(dimethylamino)azetidin-1-yl)-6-(2-fluoroethoxy)quinazolin-4-amine], the IC50 on wt-EGFR (setting [2]) was determined as 0.18 µM; against HER2, 0.026 µM.

Take `COc1ccc2ncnc(Nc3ccc(Oc4cc5ncnn5cn4)c(C)c3)c2c1N1C[C@@H](F)[C@H](N(C)C)C1` [Example 40, N-(4-([1,2,4]triazolo[1,5-c]pyrimidin-7-yloxy)-3-methylphenyl)-5-((3R,4R)-3-(dimethylamino)-4-fluoropyrrolidin-1-yl)-6-methoxyquinazolin-4-amine]: the values for the IC50 at wt-EGFR (setting [2]) and at HER2 were greater than 10 µM and 0.063 µM, respectively.

With `COc1ccc2ncnc(Nc3ccc(Oc4cc5ncnn5cn4)c(C)c3)c2c1N1C[C@H]2[C@@H]1CCN2C` [Example 45, N-(4-([1,2,4]triazolo[1,5-c]pyrimidin-7-yloxy)-3-methylphenyl)-6-methoxy-5-((1S,5S)-2-methyl-2,6-diazabicyclo[3.2.0]heptan-6-yl)quinazolin-4-amine], the IC50 was 6.6 µM against wt-EGFR (setting [2]) and 0.0025 µM on HER2.

As for `COc1ccc2ncnc(Nc3ccc(Oc4cc5ncnn5cn4)c(C)c3)c2c1N1CC2(C[C@H](F)CN2C)C1` (single isomer, unassigned) [Example 43], the IC50 at wt-EGFR (setting [2]) is 2.03 µM; on HER2 it was 0.024 µM.

As to `COc1ccc2ncnc(Nc3ccc(Oc4cc5ncnn5cn4)c(C)c3)c2c1N1CC2OCCN(C)C2C1` (stereo not shown) [Example 42, N-(4-([1,2,4]triazolo[1,5-c]pyrimidin-7-yloxy)-3-methylphenyl)-6-methoxy-5-(4-methylhexahydropyrrolo[3,4-b][1,4]oxazin-6(2H)-yl)quinazolin-4-amine], the IC50 at wt-EGFR (setting [2]) is greater than 10 µM; against HER2 it was 0.058 µM.

Turning to `COc1ccc2ncnc(Nc3ccc(Oc4cc5ncnn5cn4)c(C)c3)c2c1N1CC2(CN(C)CCO2)C1` [Example 38, N-(4-([1,2,4]triazolo[1,5-c]pyrimidin-7-yloxy)-3-methylphenyl)-6-methoxy-5-(8-methyl-5-oxa-2,8-diazaspiro[3.5]nonan-2-yl)quinazolin-4-amine], the figures for the IC50 against wt-EGFR (setting [2]) and against HER2 were greater than 10 µM and 0.037 µM, respectively.

Turning to `COc1ccc2ncnc(Nc3ccc(Oc4cc5ncnn5cn4)c(C)c3)c2c1N1C[C@@H]2[C@H]1CCN2C` [Example 46, N-(4-([1,2,4]triazolo[1,5-c]pyrimidin-7-yloxy)-3-methylphenyl)-6-methoxy-5-((1R,5R)-2-methyl-2,6-diazabicyclo[3.2.0]heptan-6-yl)quinazolin-4-amine], the IC50 against wt-EGFR (setting [2]) came to 0.215 µM; against HER2 it was 0.0073 µM.

On to `COc1ccc2ncnc(Nc3ccc(Oc4cc5ncnn5cn4)c(C)c3)c2c1N1CC2(COCCN2C)C1` [Example 41, N-(4-([1,2,4]triazolo[1,5-c]pyrimidin-7-yloxy)-3-methylphenyl)-6-methoxy-5-(5-methyl-8-oxa-2,5-diazaspiro[3.5]nonan-2-yl)quinazolin-4-amine], for which the IC50 against wt-EGFR (setting [2]) was determined as 2.26 µM; on HER2 it was 0.035 µM.

On to `COc1cc(O[C@@H]2CCN(C)CC2(F)F)c2c(Nc3ccc(Oc4cc5ncnn5cn4)c(C)c3)ncnc2c1` [Example 52, (R)—N-(4-([1,2,4]triazolo[1,5-c]pyrimidin-7-yloxy)-3-methylphenyl)-5-((3,3-difluoro-1-methylpiperidin-4-yl)oxy)-7-methoxyquinazolin-4-amine], for which the IC50 on wt-EGFR (setting [2]) worked out at 0.8 µM; against HER2, 0.182 µM.

For the compound `COc1ccc2ncnc(Nc3ccc(Oc4cc5ncnn5cn4)c(C)c3)c2c1N1CC2(C[C@H](F)CCN2C)C1` (single isomer, unassigned) [Example 47], the half-maximal inhibitory concentration (IC50) was 4.54 µM on wt-EGFR (setting [2]) and 0.0041 µM against HER2.
